From patent publication US20020137030A1, “METHOD OF DETECTION OF NEOPLASTIC CELLS” (JOHN HOPKINS UNIVERSITY SCHOOL OF MEDICINE, priority 1995, published 2002)
Entries after “also recorded” stand apart in the source; their conditions may differ.

What was measured:
Type in all cases: cell-based, human
[1] = system: p16; assay: Re-expression of p16 (RT-PCR) after 5-deoxyazacytidine in methylated lung and head and neck cancer cell lines
Method: (§1) Total RNA was extracted from cell lines by the guanidium-isothiocyanate-phenol-chloroform method (Chomczynski, P. & Sacchi, N., Analyt. Biochem, 162:156-159, 1987). Total RNA […] or poly-A (0.5 mg) was reverse transcribed by using Superscript II RNaseH^− (Gibco-BRL) reverse transcriptase (200 units) in the presence of hexamers (Pharmacia) and dNTP (Gibco-BRL). The cDNA was then amplified by PCR using the forward primer for exon 1 and the reverse primer for exons 2 or 3 (Kamb, et al., Science 264:436-440, 1994; and Serrano, et al., Nature 366:704-707, 1993) of p16 yielding a 428 or […] fragment respectively, which was run on 1.5% agarose gel. As a control, the […] fragment of p53 was amplified simultaneously. All reactions were repeated at least once. p16 primer sequence were as follows:
(§2) In the methylation studies, the cDNA was then amplified by PCR using the forward primer for exon 1 and the reverse primer for exons 2 or 3 of CDKN2/p16 yielding a 428 or […] fragment respectively, which was run on 1.5% agarose gel. As a control, the […] fragment of p53 (or β-actin) was amplified simultaneously. All reactions were repeated at least once.
(§3) Cells were grown in RPMI 1640 with 5-10% fetal calf serum depending on the growth requirements of each line. To assess re-expression, 5-deoxyazacytidine was supplemented to the medium at concentrations of […], and cells were harvested after three and five days.
(§4) In order to test the hypothesis that 5′ CpG island methylation of p16 indeed blocks gene expression, five methylated cell lines (3 NSCLC and 2 HNSCC) were subjected for 3-5 days to different dosages (0.3-1 mmol) of the demethylating agent 5-deoxyazacytidine.

[2] = system: 5′ CpG island of p16; assay: Southern blot of 5′ CpG island methylation of p16 after 5-deoxyazacytidine
Method: Southern blots were performed as described (de Bustros, et al., Proc. Natl. Acad. Sci. U.S.A., 85:5693-5697, 1988). Briefly, […] of genomic DNA were digested with of EcoRI (10 U/mg) alone or in combination with the methylation-sensitive enzymes SmaI, EagI or SacII (15 U/mg each) for 16 h as specified by the manufacturers (Gibco-BRL and New England Biolabs), run on a 1% agarose gel, transferred to a Zeta-Probe GT nylon membrane (Bio-Rad), and probed with 25 ng of the 0.35 kb and 0.5 kb PCR products of exons 1 and 2 of p16 after random primer labelling (Feinberg, A. P. & Vogelstein, B. A, Annal. Biochem. 137:266-267, 1984). The primer sequences for the PE1 probe are as follows: sense 5′ GAAGAAAGAGGAGGGGCTG (SEQ ID NO:20), and antisense 5′ […] (SEQ ID NO:21), amplified with an annealing temperature of 60° C. by adding 3.6% formamide to the PCR buffer. The c-abl probe was provided by J.-P. Issa. The blots were then exposed in a phosphorimager (MolecularDynamics). All cases with a partial methylation pattern were repeated to exclude imcomplete enzymatic activity.
as §3, §4

[3] = system: cancer cell lines; assay: Effects on cell growth, morphology and viability of cancer cell lines; conditions: non-specific; also seen in lines with homozygous deletions of p16, independent of methylation status
Method: as §3
However, these effects were non-specific and observed in cell lines with homozygous deletions of p16, and with retention of p16 alleles independent of methylation status. Therefore, we cannot attribute these non-specific effects to re-expression of p16, since other genes might also be affected by azacytidine.

[4] = system: p16; assay: Re-expression of p16 mRNA (RT-PCR) after 5-deoxyazacytidine in colon cancer cell lines RKO and SW480; conditions: 3 days
Method: as §1
as §2, with “once. […]” for “once.”
In contrast, normal breast and 3 of 4 tested colon mucosa samples had readily detectable p16 message. […]

Nc1ncn([C@H]2C[C@H](O)[C@@H](CO)O2)c(=O)n1 [5-deoxyazacytidine]
re-expression of p16 message by RT-PCR ([1]; five methylated cell lines (3 NSCLC and 2 HNSCC), 0.3-1 mmol, 3-5 days, each dose and time tested): re-expressed the message of p16
re-expression of p16 (FIG. 5b) ([1]; methylated HNSCC cell lines (lanes 4 and 6)): re-express p16
reexpression of p16 message on reversal of methylation ([1]; methylated cell lines, summary statement): reexpression of p16 message
re-expression of p16, 428 bp RT-PCR product (FIG. 5d) ([1]; transcriptionally silenced lines U1752 and H157, all doses and times): re-express p16
demethylation of p16 5′ CpG island, EcoRI and SmaI Southern (FIG. 5c) ([2]; line H157): Partial demethylation
demethylation of p16 5′ CpG island, EcoRI and SmaI Southern (FIG. 5c) ([2]; line H 1752, 1 and 0.5 mmol, 3 days and 5 days, all dosages and time points): demethylation was seen
demethylation of the monitored CpG sites ([2]; methylated cell lines, associated with reversal of the transcriptional block of p16): partial demethylation
effects on cell growth, morphology, and viability [3]: profound effects
p16 mRNA by RT-PCR after treatment [4]: p16 gene mRNA was seen; also recorded: detectable p16 mRNA
